Test results from the supplement of paper PMC5579334.

How the values were obtained:
[1] = system: HSC1; assay: relative IC50 (inflection point of fitted dose-response curve, CellTox-Green cytotoxicity, 72 h; top asymptote may be below 50%); higher = less potent
Summary of the method: (§1)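 MPNST cell lines and primary human Schwann cells were grown for 72 h at 37 °C in 384-well plates containing five 10-fold compound dilutions. CellTox-Green, added before seeding at a final 1:1000 dilution, gave fluorescence from DNA released by disrupted cells, and signals were scaled to vehicle and positive-control wells. Curves were fitted with a four-parameter logistic model. Drug sensitivity score and relative IC50 come from these fits, with IC50 censored at the top concentration.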

[2] = system: S1507-2; assay: as above
Summary of the method: as §1

[3] = system: HSC2; assay: as above
Summary of the method: as §1

[4] = system: HS-PSS; assay: as above
Summary of the method: as §1

[5] = system: STS26T; assay: as above
Summary of the method: as §1

[6] = system: ST8814; assay: as above
Summary of the method: as §1

[7] = system: S462; assay: relative IC50 (inflection point of fitted dose-response curve, CellTiter-Glo viability, 72 h; top asymptote may be below 50% inhibition); higher = less potent
Summary of the method: (§2)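 For this screen, 384-well plates were preprinted with each compound at five concentrations in 10-fold steps and seeded with MPNST cell lines or primary human Schwann cells at 750–1000 cells per well. Incubation lasted 72 h at 37 °C, 5% CO2, and CellTiter-Glo ATP luminescence, scaled between vehicle and positive-control wells and averaged over duplicates where available, served as viability. Logistic fits with four parameters were applied. Relative IC50 (censored at the top concentration) and drug sensitivity score derive from these fits, and percent inhibition is at the top concentration.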

[8] = system: HSC1; assay: as above
Summary of the method: as §2

[9] = system: S1507-2; assay: as above
Summary of the method: as §2

[10] = system: YST-1; assay: as above
Summary of the method: as §2

[11] = system: HS-Sch-2; assay: as above
Summary of the method: as §2

[12] = system: HSC2; assay: as above
Summary of the method: as §2

[13] = system: HS-PSS; assay: as above
Summary of the method: as §2

[14] = system: STS26T; assay: as above
Summary of the method: as §2

[15] = system: ST8814; assay: as above
Summary of the method: as §2

| Structure (SMILES) | relative IC50 [1] [nM] | relative IC50 [2] [nM] | relative IC50 [3] [nM] | relative IC50 [4] [nM] | relative IC50 [5] [nM] | relative IC50 [6] [nM] | relative IC50 [7] [nM] | relative IC50 [8] [nM] | relative IC50 [9] [nM] | relative IC50 [10] [nM] | relative IC50 [11] [nM] | relative IC50 [12] [nM] | relative IC50 [13] [nM] | relative IC50 [14] [nM] | relative IC50 [15] [nM] |
| --- | --- | --- | --- | --- | --- | --- | --- | --- | --- | --- | --- | --- | --- | --- | --- |
| C#Cc1cccc(Nc2ncnc3cc(OC)c(OCCCCCCC(=O)NO)cc23)c1 [CUDC-101] | 1130 | 1810 | 984 | 1850 | 2500 | 1270 | 732 | 470 | 909 | 159 | 438 | 545 | 699 | 1820 | 801 |
| COc1ccccc1S(=O)(=O)Nc1ccc2c(c1)CN(C)C(=O)N2 [PFI-1] | > 10000 | 3630 | > 10000 | > 10000 | > 10000 | 2080 | 1710 | 2820 | 1670 | 1720 | 1670 | 2120 | 3730 | 1470 | 1530 |
| COc1ccc(S(=O)(=O)Nc2cccnc2Nc2ccc(O)cc2)cc1 [ABT-751] | 831 | 355 | 304 | > 10000 | 246 | 536 | 351 | 468 | 325 | 814 | 437 | 476 | 3010 | 367 | 353 |
| CCCCC(=O)OCC(=O)[C@]1(O)Cc2c(O)c3c(c(O)c2[C@@H](O[C@H]2C[C@H](NC(=O)C(F)(F)F)[C@H](O)[C@H](C)O2)C1)C(=O)c1c(OC)cccc1C3=O [Valrubicin] | > 5000 | > 5000 | > 5000 | > 5000 | > 5000 | > 5000 | 233 | 238 | 534 | 97 | 264 | 258 | 422 | 306 | 285 |
| Cc1cc2c(F)c(Oc3ncnn4cc(OC[C@@H](C)O)c(C)c34)ccc2[nH]1 [Brivanib] | > 1000 | > 1000 | > 1000 | > 1000 | > 1000 | > 1000 | > 1000 | > 1000 | > 1000 | > 1000 | > 1000 | > 1000 | > 1000 | > 1000 | > 1000 |
| CC(C)(C)c1cnc(CSc2cnc(NC(=O)C3CCNCC3)s2)o1 [SNS-032] | 11.9 | > 10000 | 6.74 | 2450 | 15.9 | 27.2 | 10.4 | 5.57 | 141 | 38.3 | 48.5 | 3.76 | 26.7 | 21 | 46.6 |
| CCC1(c2ccc(N)cc2)CCC(=O)NC1=O (stereo not given) [Aminoglutethimide] | > 10000 | > 10000 | > 10000 | > 10000 | > 10000 | > 10000 | > 10000 | > 10000 | > 10000 | > 10000 | > 10000 | > 10000 | > 10000 | > 10000 | > 10000 |
| O=C(CCCCCCC(=O)Nc1ccccc1)NO [Vorinostat] | 3780 | 2660 | 3430 | 2450 | 2570 | 3150 | 2090 | 1310 | 1680 | 687 | 1770 | 1570 | 2820 | 2250 | 1690 |
| CCCc1cc(C)[nH]c(=O)c1CNC(=O)c1cc(-c2ccnc(N3CCN(C)CC3)c2)cc2c1cnn2C(C)C [GSK343] | > 10000 | 2310 | > 10000 | 3090 | 2660 | 3100 | 3250 | 1520 | 2690 | 4350 | 3810 | 1810 | 2970 | 3820 | 3200 |
| CCN(CC)CCOc1ccc(/C(=C(/Cl)c2ccccc2)c2ccccc2)cc1 [Clomifene] | > 10000 | 3540 | 2030 | 2990 | 2840 | 2560 | 2450 | 1140 | 2470 | 3930 | 3360 | 2440 | 2290 | 2520 | 2540 |
| C=CC(=O)Nc1cc2c(Nc3ccc(F)c(Cl)c3)ncnc2cc1OCCCN1CCOCC1 [Canertinib] | 2160 | 2410 | 2000 | 2420 | 2700 | 2970 | 2780 | 1610 | 1560 | 3180 | 2530 | 2030 | 2440 | 2220 | 1870 |
| CC(C)C[C@H](NC(=O)[C@H](CCc1ccccc1)NC(=O)CN1CCOCC1)C(=O)N[C@@H](Cc1ccccc1)C(=O)N[C@@H](CC(C)C)C(=O)[C@@]1(C)CO1 [Carfilzomib] | 24.6 | 25.7 | 23 | 25.1 | 8.79 | 12 | 4.5 | 11.5 | 17.2 | 4.71 | 2.75 | 9.67 | 11.7 | 8.28 | 8.99 |
| Nc1cc(C(F)(F)F)c(-c2cc(N3CCOCC3)nc(N3CCOCC3)n2)cn1 [Buparlisib] | 2710 | 2960 | 2210 | > 10000 | 1610 | 2660 | 1790 | 1990 | 1370 | 844 | 1610 | 2020 | 1750 | 1530 | 1690 |
| COc1c(C)cnc(Cn2cnc3c(Cl)nc(N)nc32)c1C [BIIB021] | 217 | 484 | 231 | 396 | 316 | 587 | 186 | 395 | 268 | 328 | 95.1 | 297 | 424 | 247 | 280 |
| C/C(=C\c1csc(C)n1)[C@@H]1C[C@@H]2O[C@]2(C)CCC[C@H](C)[C@H](O)[C@@H](C)C(=O)C(C)(C)[C@@H](O)CC(=O)N1 [Ixabepilone] | 283 | 370 | 354 | > 1000 | 316 | 341 | 335 | 115 | 332 | 361 | 313 | 248 | 392 | 350 | 363 |
| CC[C@@H]1C(=O)N(C)c2cnc(Nc3ccc(C(=O)N[C@H]4CC[C@H](N5CCN(CC6CC6)CC5)CC4)cc3OC)nc2N1C(C)C [Volasertib] | 29.3 | 12.7 | 25.2 | > 1000 | 2.68 | 34.1 | 15.4 | 34.5 | 16.1 | 17.7 | 10.6 | 33.2 | 42.1 | 7.29 | 33.6 |
| Cc1[nH]c2ccccc2c1CCNCc1ccc(/C=C/C(=O)NO)cc1 [Panobinostat] | 125 | 30.9 | 122 | 89.1 | 64.9 | 36.6 | 14.2 | 20.8 | 11.2 | 9.07 | 25.4 | 37.2 | 54.8 | 35.4 | 15 |
| CC(C)c1cc(-c2n[nH]c(=O)n2-c2ccc3c(ccn3C)c2)c(O)cc1O [Ganetespib] | 17.8 | 46.4 | 18.5 | 37.5 | 33 | 11.5 | 25 | 14.9 | 42.4 | 36.8 | 23.2 | 17.2 | 42.7 | 24.4 | 18.1 |
| O=C(/C=C/c1cccc(S(=O)(=O)Nc2ccccc2)c1)NO [Belinostat] | 1770 | 1190 | 1700 | 1490 | 415 | 800 | 762 | 459 | 364 | 259 | 610 | 704 | 924 | 718 | 321 |
| CCc1c2c(nc3ccc(OC(=O)N4CCC(N5CCCCC5)CC4)cc13)-c1cc3c(c(=O)n1C2)COC(=O)[C@]3(O)CC [Irinotecan] | 2660 | 3670 | 2240 | 2130 | 2360 | 1940 | 1310 | 406 | 1580 | 359 | 1340 | 822 | 2610 | 1790 | 1210 |
| O=C(/C=C/c1cccnc1)NCCCCC1CCN(C(=O)c2ccccc2)CC1 [Daporinad] | > 1000 | > 1000 | > 1000 | > 1000 | 36.1 | > 1000 | 4.41 | 7.32 | 37.8 | 2.8 | 3.57 | 8.05 | 5.73 | 36.9 | 7.62 |
| Nc1nc(Cl)nc2c1ncn2[C@@H]1O[C@H](CO)[C@@H](O)[C@@H]1F [Clofarabine] | 323 | 1940 | 337 | 311 | 585 | 814 | 374 | 289 | 817 | 331 | 161 | 207 | 387 | 301 | 744 |
| O=C(CCBr)N1CCN(C(=O)CCBr)CC1 [Pipobroman] | > 10000 | > 10000 | > 10000 | > 10000 | > 10000 | > 10000 | > 10000 | > 10000 | > 10000 | > 10000 | > 10000 | > 10000 | > 10000 | > 10000 | > 10000 |
| CC(C)C[C@H](NC(=O)[C@H](Cc1ccccc1)NC(=O)c1cnccn1)B(O)O [Bortezomib] | 22.6 | 8.94 | 21.4 | 123 | 11.2 | 9.88 | 5.87 | 7.32 | 10.1 | 10.1 | 3.47 | 6.64 | 51.1 | 11 | 6.3 |
| Oc1ncnc2[nH]ncc12 [Allopurinol] | > 10000 | > 10000 | > 10000 | > 10000 | > 10000 | > 10000 | > 10000 | > 10000 | > 10000 | > 10000 | > 10000 | > 10000 | > 10000 | > 10000 | > 10000 |
| O=C(Cc1ccc(-c2ccc(OCCN3CCOCC3)cc2)cn1)NCc1ccccc1 [KX2-391] | 112 | 30.2 | 139 | > 10000 | 23.6 | 33.8 | 34.3 | 52.3 | 46.7 | 49.1 | 30.5 | 73 | 163 | 29.4 | 36.4 |
